Data taken from patent US6274334A, “Monoclonal antibody, cell line and immunoassay for ractopamine” (The United States of America as represented by the …, priority 2000, dated 2001).
“And” between values parts separate entries of the source, which are not always exact repeats. Equal values may be shown once. Where a name gives a salt, the structure may show the parent alone.

Tests used:
[1] = test system: antibody produced by hybridoma 5G10; assay: Competitive indirect ELISA for specificity of the 5G10 antibody (buffer); type: binding, mouse; conditions: for IC50: means of three separate experiments on three different days, racemic ractopamine average of 15 experiments; for Cross-reactivity: ratio of IC50 for racemic ractopamine to that of test compound times 100; for poorer ligand relative to (1R,3R) stereoisomer of ractopamine: relative to (1R,3R) ractopamine; for competition curve: competitors up to 10,000 ng/mL
Protocol: The supernatant culture fluid from the cloned hybridomas may also be screened to select for those producing antibodies having a high affinity for ractopamine. Affinity may be measured using a variety of well known techniques, such as ELISA, RIA or equilibrium dialysis using labelled ractopamine. Competitive indirect ELISA (CI-ELISA) is preferred, and is conducted at a final antibody concentration (dilution from tissue culture supernatant) to give 50% of maximal binding to a ractopamine coated substrate or assay well. In accordance with this embodiment, the antibody containing supernatant is added to a ractopamine conjugate-coated solid substrate such as the wells of an assay plate, together with a range of concentrations of free ractopamine as a competitor. Following incubation and washing, bound antibody in the wells is determined in the same manner as the indirect-ELISA. Percent inhibition may be calculated as (1-B/B0)×100 where B is the optical density (OD) of a well with a competitor and B0 is the mean OD of the wells without competitor (control). […] However, for even greater accuracy, the affinity may be alternatively measured at 50% inhibition (IC50).
(§1) The checkerboard method was used to determine the optimum amount of coating antigen-ractopamine-glutarate-BSA (0.1 to 1 μg/well), primary antibody (1:4000 to 1:14,000), and secondary antibody (1:5000 to 1:50,000) required for the indirect competition ELISA. […] Ninety-six well flat bottom ELISA plates were coated with 500 ng/well of ractopamine-glutarate-BSA in 50 mM bicarbonate buffer, pH 9.6, and allowed to shake for 2 hours using an orbital shaker after which the plates were washed 5 times with PBST. Excess binding sites in each well were blocked by incubating with a 1% solution of Teleostean® cold water fish gelatin for 1 hour after which each well was washed 5 times with PBST. Primary antibody (5G10), diluted to 1:14,000, was added (50 μL/well) in the presence of competitor (100 μL/well) and was incubated for 1.5 hours. Competitors were incubated at concentrations of 0, 0.1, 0.5, 1, 5, 10, 50, 100, 500, 1000, 5000, and 10,000 ng/mL. A racemic ractopamine calibration curve was used in every experiment as a quality control. Washing wells five times with PBST terminated the reactions. Goat anti-mouse IgG peroxidase conjugate, diluted 1:50,000 (100 μL/well), was incubated for 1 hour. A TMB substrate solution was used during color development (30 min); the color development was stopped by adding 50 μL/well of 2 N H2 SO4. All incubations were conducted at 37° C. The plates were read at 450 nm and the data analyzed using a four-parameter logistic equation for the competitors that produced competition curves.

ractopamine antibody = assay: Immunoaffinity column retention; type: binding, mouse; conditions: C-14 labeled, eluted with 0-100% MeOH
Protocol: Ten milliliters of acites containing ractopamine antibody were diluted with 0.1 M acetate buffer (1:3) and centrifuged. The diluted ascites was passed through a protein-G column and non-bound material was washed off with 0.1 M acetate buffer, pH 5.0, followed by 0.1 M glycine, pH 2.8 to elute the IgG. The protein concentration was determined by OD280 and confirmed by the method of Bradford. The IgG purity was confirmed by 10% SDS-PAGE. Purified IgG was conjugated with CNBr-Sepharose according to a standard procedure. Five milligrams of IgG was conjugated with 1 mL of CNBr-Sepharose to produce the immunoaffinity beads. The immunoaffinity beads were packed to a screening column. A solution containing approximately equal amounts of C-14 labeled ractopamine and ractopamine glucuronide was applied to the column. The column was subsequently eluted with 0, 10%, 30%, 50%, 70% and 100% MeOH; eluants were collected and counted for C-14 activity to verify recoveries. […] Thus, the ractopamine IAC retained both ractopamine and ractopamine metabolites, and has the potential to be used for the rapid isolation of ractopamine and (or) ractopamine metabolites from solution. Such a technique would have wide application in the preparation of samples undergoing a ractopamine confirmatory assay.

[2] = Wicker et al. 1995; cited from earlier work
polyclonal antibodies = polyclonal antibodies generated from rabbits; cited from earlier work
hogs = conditions: dietary, relative to untreated control animals; cited from earlier work
5G10 monoclonal antibody = assay: Competitive ELISA in diluted bovine urine (matrix effects); type: binding, mouse
Protocol: as §1
Ractopamine (0, 0.1, 0.5, 1, 5, 10, 50, 100, 500, 1000, 5000, and 10,000 ng/mL) was added to bovine urine samples diluted 1:2, 1:5, 1:10, and 1:20 with PBST. Urine was collected from a Holstein cow that had not received any ractopamine treatment. Immunoassays in diluted matrices were run according to the procedure described in Example 2. The resulting competition data were fit to a four-parameter logistic equation using the program manager provided by the plate reader (Bio-Rad® Laboratories, Hercules, Calif.) and the IC50 values were determined. The IC50 and B0 from each diluted urine curve were compared with IC50 and B0 values generated from the PBST standard curve. Ractopamine in a 1:10 urine dilution at concentrations of 1, 5, 10, 20 ng/mL were divided and stored at -20° C. until used. For determination of intra-assay variation, each concentration of the spiked urine samples was pipetted into 12 wells, along with the appropriate standard curve ([…], 12 levels) and the data processed using the spiked samples as replicated unknowns. Inter-assay variation was determined in a similar manner on five separate days with duplicate wells for each level of spiked sample.

[3] = in words; cited from earlier work
[4] = species dosed with ractopamine HCl; cited from earlier work

| SMILES | IC50 [1] | Cross-reactivity [1] [%] | also measured |
| --- | --- | --- | --- |
| CC(CCc1ccc(O)cc1)NCCc1ccc(O)c(O)c1 (racemic) [Dobutamine] | 50.3 ± 8.1 ng/mL | 5.3 | – |
| CC(CCc1ccc(O)cc1)NCC(O)c1ccc(O)cc1 (racemic) [Ractopamine (racemic), (1R*, 3R*), (1R*, 3S*)-4-hydroxy-β-[[[3-(4-hydroxyphenyl)-1-methylpropyl]amino]methyl]-benzenemethanol hydrochloride] | – | 100 | retention on immunoaffinity column (ractopamine antibody): The radioactivity was mainly in the 50% and 100% MeOH fractions; cross-reaction in immunoassay kits [2]: cross-react poorly with ractopamine; limit of detection ([1]; 80% B/B0 (IC20)): 0.5 ng/mL; IC50 ([1]; hydrochloride): 2.69 ± 0.36 ng/mL; IC50 ([1]; listed as racemic ractopamine, hydrochloride): 2.7 ng/mL; IC50 (polyclonal antibodies): 4.2 ng/mL; growth and carcass effects (hogs): increased growth rates, feed efficiencies, and greater yields of boneless, closely trimmed retail cuts; IC50 (5G10 monoclonal antibody; buffer (PBST)): 2.49 ng/mL; IC50 (5G10 monoclonal antibody; urine dilution 1:2): 11.58 ng/mL; IC50 (5G10 monoclonal antibody; urine dilution 1:5): 4.62 ng/mL; IC50 (5G10 monoclonal antibody; urine dilution 1:10): 3.16 ng/mL; IC50 (5G10 monoclonal antibody; urine dilution 1:20): 3.02 ng/mL |
| CC(CCc1ccc(O[C@@H]2O[C@H](C(=O)O)[C@@H](O)[C@H](O)[C@H]2O)cc1)NCC(O)c1ccc(O)cc1 (single isomer, unassigned) [Ractopamine glucuronide A] | 263 ± 20 ng/mL | 1 | poorer ligand relative to (1R,3R) stereoisomer of ractopamine [1]: over 100 times |
| CC(CCc1ccc(O[C@@H]2O[C@H](C(=O)O)[C@@H](O)[C@H](O)[C@H]2O)cc1)NCC(O)c1ccc(O)cc1 (single isomer, unassigned) [Ractopamine glucuronide B] | 87.8 ± 5.0 ng/mL | 3.1 | poorer ligand relative to (1R,3R) stereoisomer of ractopamine [1]: over 100 times |
| C[C@H](CCc1ccc(O)cc1)NC[C@H](O)c1ccc(O)cc1 [(1R, 3R) -ractopamine] | 0.55 ± 0.09 ng/mL | 489 | detection limit ([1]; in PBST): 0.1 ng/mL; biological activity [3]: confers biological activity to the molecule |
| C[C@@H](CCc1ccc(O)cc1)NC[C@H](O)c1ccc(O)cc1 [(1R, 3S) -ractopamine] | 291 ± 32 ng/mL | 0.9 | decrease of antibody binding (factor) ([1]; α-methyl group in (S) configuration): 100 |
| C[C@H](CCc1ccc(O)cc1)NC[C@@H](O)c1ccc(O)cc1 [(1S, 3R) -ractopamine] | 2.00 ± 0.37 ng/mL | 134 | – |
| C[C@@H](CCc1ccc(O)cc1)NC[C@@H](O)c1ccc(O)cc1 [(1S, 3S) -ractopamine] | 140 ± 23 ng/mL | 1.9 | – |
| CCCCNCC(O)c1ccc(O)cc1 (stereo not drawn) [Bamethane] | 831 ± 11 ng/mL | 0.3 | – |
| CC(C)(C)NCC(O)c1cc(Cl)c(N)c(Cl)c1 (stereo not drawn) [Clenbuterol] | – | < 0.1 | competition curve [1]: did not produce competition curves; cross reaction with the 5G10 antibody ([1]; in words): did not cross react with the 5G10 antibody |
| CC(Cc1ccc(O)cc1)NCC(O)c1cc(O)cc(O)c1 (stereo not drawn) [Fenoterol] | 2682 ± 350 ng/mL | 0.1 | – |
| CC(COc1ccccc1)NC(C)C(O)c1ccc(O)cc1 (stereo not drawn) [Isoxsuprine] | 1391 ± 127 ng/mL | 0.2 | – |
| COc1ccc(C(O)CNC(C)CCc2ccc(O)cc2)cc1 (stereo not drawn) [LY227273] | 2.6 ng/mL and 2.62 ± 0.08 ng/mL | 103 | – |
| C[C@H](CCc1ccc(O)cc1)NCCc1ccc(O)cc1 [R-des-OH-ractopamine] | 1.59 ± 0.09 ng/mL | 169 | – |
| CC(CCc1ccc(O)cc1)NCC(O)c1ccc(O[C@@H]2O[C@H](C(=O)O)[C@@H](O)[C@H](O)[C@H]2O)cc1 (stereo partly drawn) [Ractopamine glucuronide C] | 0.70 ± 0.04 ng/mL | 384 | identification as metabolite [4]: has been identified in various species dosed experimentally with ractopamine HCl; affinity relative to (1R,3R) ractopamine ([1]; in words): bound to the antibody with an affinity almost as great as (1R,3R) ractopamine |
| CC(NCCc1ccc(O)cc1)C(O)c1ccc(O)cc1 (stereo not drawn) [Ritodrine] | 73.8 ± 4.4 ng/mL | 3.6 | – |
| C[C@@H](CCc1ccc(O)cc1)NCCc1ccc(O)cc1 [S-des-OH-ractopamine] | 25.2 ± 1.9 ng/mL | 10.7 | – |
| CC(C)(C)NCC(O)c1ccc(O)c(CO)c1 (stereo not drawn) [Salbutamol] | – | < 0.1 | competition curve [1]: did not produce competition curves |
| OCc1cc(C(O)CNCCCCCCOCCCCc2ccccc2)ccc1O (stereo not drawn) [Salmeterol] | 1519 ± 116 ng/mL | 0.2 | – |
